Assay: mn = molality of the nth substance listed, in mol/kg
Conditions: 101 kPa, Liquid; for speed of sound: Sing-around technique in a fixed-path interferometer; for mass density: Vibrating tube method

O=C([O-])CC(O)(CC(=O)O)C(=O)O.[K+] [potassium dihydrogen citrate] + O
Conditions	mass density [kg/m3]	speed of sound [m/s]
283.15 K, m1 = 0.0063	1000.47	1448.8
283.15 K, m1 = 0.0186	1001.97	1450.1
283.15 K, m1 = 0.0314	1003.53	1451.5
283.15 K, m1 = 0.0407	1004.65	1452.5
283.15 K, m1 = 0.0561	1006.52	1454.2
283.15 K, m1 = 0.0574	1006.67	1454.3
283.15 K, m1 = 0.0868	1010.19	1457.2
283.15 K, m1 = 0.0905	1010.65	1457.9
283.15 K, m1 = 0.1399	1016.4	1462.9
283.15 K, m1 = 0.1655	1019.36	1465.4
283.15 K, m1 = 0.284	1032.79	1477
283.15 K, m1 = 0.396	1044.96	1487.4
283.15 K, m1 = 0.4766	1053.37	1494.6
283.15 K, m1 = 0.5861	1064.69	1504.1
283.15 K, m1 = 0.5922	1065.27	1504.7
283.15 K, m1 = 0.7578	1081.71	1518.5
288.15 K, m1 = 0.0063	999.861	1466.9
288.15 K, m1 = 0.0186	1001.34	1468.2
288.15 K, m1 = 0.0314	1002.87	1469.5
288.15 K, m1 = 0.0407	1003.98	1470.4
288.15 K, m1 = 0.0561	1005.82	1472
288.15 K, m1 = 0.0574	1005.97	1472.1
288.15 K, m1 = 0.0868	1009.45	1475
288.15 K, m1 = 0.0905	1009.9	1475.4
288.15 K, m1 = 0.1399	1015.58	1480.1
288.15 K, m1 = 0.1655	1018.5	1482.5
288.15 K, m1 = 0.284	1031.76	1493.4
288.15 K, m1 = 0.396	1043.8	1503.1
288.15 K, m1 = 0.4766	1052.13	1509.8
288.15 K, m1 = 0.5861	1063.34	1518.9
288.15 K, m1 = 0.5922	1063.9	1519.4
288.15 K, m1 = 0.7578	1080.19	1532.5
293.15 K, m1 = 0.0063	998.956	1483.1
293.15 K, m1 = 0.0186	1000.41	1484.3
293.15 K, m1 = 0.0314	1001.93	1485.5
293.15 K, m1 = 0.0407	1003.03	1486.4
293.15 K, m1 = 0.0561	1004.84	1487.9
293.15 K, m1 = 0.0574	1004.99	1488
293.15 K, m1 = 0.0868	1008.42	1490.7
293.15 K, m1 = 0.0905	1008.87	1491
293.15 K, m1 = 0.1399	1014.48	1495.5
293.15 K, m1 = 0.1655	1017.37	1497.7
293.15 K, m1 = 0.284	1030.49	1507.8
293.15 K, m1 = 0.396	1042.41	1517
293.15 K, m1 = 0.4766	1050.65	1523.3
293.15 K, m1 = 0.5861	1061.76	1531.8
293.15 K, m1 = 0.5922	1062.33	1532.3
293.15 K, m1 = 0.7578	1078.48	1544.7
298.15 K, m1 = 0.0063	997.788	1497.3
298.15 K, m1 = 0.0186	999.232	1498.5
298.15 K, m1 = 0.0314	1000.73	1499.6
298.15 K, m1 = 0.0407	1001.82	1500.4
298.15 K, m1 = 0.0561	1003.61	1501.8
298.15 K, m1 = 0.0574	1003.75	1501.9
298.15 K, m1 = 0.0868	1007.15	1504.4
298.15 K, m1 = 0.0905	1007.6	1504.7
298.15 K, m1 = 0.1399	1013.15	1508.8
298.15 K, m1 = 0.1655	1016	1510.9
298.15 K, m1 = 0.284	1029	1520.5
298.15 K, m1 = 0.396	1040.81	1529
298.15 K, m1 = 0.4766	1048.98	1535
298.15 K, m1 = 0.5861	1060	1543
298.15 K, m1 = 0.5922	1060.56	1543.5
298.15 K, m1 = 0.7578	1076.59	1555.2
303.15 K, m1 = 0.0063	996.385	1509.7
303.15 K, m1 = 0.0186	997.809	1510.7
303.15 K, m1 = 0.0314	999.297	1511.8
303.15 K, m1 = 0.0407	1000.37	1512.5
303.15 K, m1 = 0.0561	1002.15	1513.8
303.15 K, m1 = 0.0574	1002.29	1513.9
303.15 K, m1 = 0.0868	1005.65	1516.3
303.15 K, m1 = 0.0905	1006.09	1516.6
303.15 K, m1 = 0.1399	1011.59	1520.5
303.15 K, m1 = 0.1655	1014.43	1522.4
303.15 K, m1 = 0.284	1027.31	1531.4
303.15 K, m1 = 0.396	1039.02	1539.4
303.15 K, m1 = 0.4766	1047.12	1545
303.15 K, m1 = 0.5861	1058.06	1552.6
303.15 K, m1 = 0.5922	1058.61	1553
303.15 K, m1 = 0.7578	1074.53	1564.2
308.15 K, m1 = 0.0063	994.762	1520.3
308.15 K, m1 = 0.0186	996.176	1521.3
308.15 K, m1 = 0.0314	997.649	1522.3
308.15 K, m1 = 0.0407	998.709	1523
308.15 K, m1 = 0.0561	1000.47	1524.2
308.15 K, m1 = 0.0574	1000.61	1524.3
308.15 K, m1 = 0.0868	1003.95	1526.5
308.15 K, m1 = 0.0905	1004.38	1526.8
308.15 K, m1 = 0.1399	1009.84	1530.4
308.15 K, m1 = 0.1655	1012.65	1532.3
308.15 K, m1 = 0.284	1025.42	1540.7
308.15 K, m1 = 0.396	1037.05	1548.2
308.15 K, m1 = 0.4766	1045.1	1553.5
308.15 K, m1 = 0.5861	1055.95	1560.7
308.15 K, m1 = 0.5922	1056.5	1561.1
308.15 K, m1 = 0.7578	1072.31	1571.6
